# Tests used:
# Assay type in all cases: biochemical
# [1] = system: angiotensin-I-converting enzyme (ACE-I; EC 3.4.15.1); assay: ACE-I inhibition assay (ACE Kit-WST); conditions: 1 mg/mL, 37 °C, 1 h, absorbance 450 nm
# Method: Protein isolates from all seven oat varieties and selected synthesised peptides were tested in vitro for ACE-I inhibition. The bioassay (ACE Kit—WST, Dojindo Laboratories, Kumamoto, Japan) was carried out according to the manufacturer’s instructions. First, 20 μL of each sample inhibitor at a concentration of 1 mg/mL ddH2O was added to 20 μL substrate and 20 μL enzyme working solution in triplicate. Samples were incubated at 37 °C for 1 h. Each well then had 200 μL indicator working solution added, followed by a further incubation at room temperature for 10 min. Absorbance at 450 nm was read using a FLUOstar Omega microplate reader (BMG LABTECH GmbH, Offenburg, Germany). The percentage inhibition was calculated using the following equation:% ACE-I inhibition = 100% Initial activity − Inhibitor × 100/100% Initial activity(2)
# [2] = system: dipeptidyl peptidase-IV (DPP-IV; EC 3.4.14.5); conditions: synthesised peptides, 1 mg/mL; 10 μL sample at 1 mg/mL assay buffer + 30 μL buffer, 10 μL DPP-IV, 50 μL substrate; 37 °C, 30 min; fluorescence 355/460 nm; mean of triplicate samples
# Method: Protein isolates from all seven oat varieties and selected synthesised peptides were tested in vitro for DPP-IV inhibition. […] First, 10 μL of each sample inhibitor at a concentration of 1 mg/mL assay buffer was added to 30 μL diluted assay buffer, 10 μL diluted DPP-IV, and 50 μL substrate solution, in triplicate. Samples were incubated at 37 °C for 30 min. Fluorescence was read with excitation wavelengths of 355 nm and emission wavelengths of 460 nm using a FLUOstar Omega microplate reader (BMG LABTECH GmbH, Offenburg, Germany). The percentage inhibition was calculated using the following equation:% DPP-IV inhibition = 100% Initial activity − Inhibitor × 100/100% Initial activity (3)
# renin (EC 3.4.23.15) = assay: Renin Inhibition Screening Assay; conditions: synthesised peptides, 1 mg/mL; 10 μL sample at 1 mg/mL DMSO + 20 μL substrate, 150 μL buffer, 10 μL renin; 37 °C, 15 min; fluorescence 340/500 nm; mean of triplicate samples
# Method: Protein isolates from all seven oat varieties and selected synthesised peptides were tested in vitro for renin inhibition activity. The Renin Inhibition Screening Assay (Cambridge BioSciences, Cambridge, UK) was carried out as per the manufacturer’s instructions. Briefly, 10 μL of each sample inhibitor at a concentration of 1 mg/mL dimethyl sulfoxide (DMSO) was added to 20 μL renin substrate, 150 μL assay buffer, and 10 μL renin, in triplicate. The samples were incubated at 37 °C for 15 min, and read with excitation wavelengths of 340 nm and emission wavelengths of 500 nm. Fluorescence was read using a FLUOstar Omega microplate reader (BMG LABTECH GmbH, Offenburg, Germany). The percentage inhibition was calculated using the following equation:% Renin inhibition = 100% Initial activity − Inhibitor × 100/100% Initial activity (1)
# [3] = synthesised peptides, 20 μL sample at 1 mg/mL ddH2O + 20 μL substrate, 20 μL enzyme, mean of triplicate samples
molecule,measurement,setting,value
"C[C@H](CS)C(=O)N1CCC[C@H]1C(=O)O [captopril, reference compound]",% ACE-I inhibition,"[1]; positive control, triplicate",97.7% (±23.2%)
"FEPL [chemically synthesised peptide; 12S globulin f(53–56), papain]",% ACE-I inhibition,[1]; [3],48.9 ± 7.8%
"FLLA [chemically synthesised peptide; 11S globulin/12S globulin f(203–206), papain]",% ACE-I inhibition,[1]; [3],97 ± 16.2%
"FPIL [chemically synthesised peptide; 11S globulin f(364–367), ficin]",% DPP-IV inhibition,[2],13.1 ± 3.2%
"IFFFL [chemically synthesised peptide; Avenin f(3–7), ficin]",% ACE-I inhibition,[1]; [3],53 ± 41.2%
same,% Renin inhibition,renin (EC 3.4.23.15),17.1% (±2.6%)
